Target: T1, human CCR-3 (Homo sapiens, UniProt P51677)
T1 construct: expressed in transfected cells; membranes
T1 sequence (P51677 1-355): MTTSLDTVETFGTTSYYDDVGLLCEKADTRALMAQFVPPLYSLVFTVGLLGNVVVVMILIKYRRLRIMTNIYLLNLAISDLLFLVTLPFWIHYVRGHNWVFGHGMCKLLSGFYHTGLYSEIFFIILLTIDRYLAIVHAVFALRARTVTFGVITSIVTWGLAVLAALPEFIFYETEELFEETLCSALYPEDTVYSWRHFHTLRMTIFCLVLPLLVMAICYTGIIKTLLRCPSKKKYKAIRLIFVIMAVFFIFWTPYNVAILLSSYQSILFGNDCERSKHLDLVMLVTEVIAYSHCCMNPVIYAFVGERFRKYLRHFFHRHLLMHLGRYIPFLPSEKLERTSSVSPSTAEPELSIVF
Assay: CCR-3 Binding Assay (inhibition of [125I]-human eotaxin binding, SPA)
Settings: binding of [125I]-human eotaxin to membranes of RBL-2H3 cells stably expressing CCR3; 4 hours at room temperature
Description: In this assay the effect of agents of the invention on the binding of human eotaxin to human CCR-3 is determined. Recombinant cells expressing human CCR-3 are captured by wheatgerm agglutinin (WGA) polyvinyltoluidene (PVT) SPA beads (available from Amersham), through a specific interaction between the WGA and carbohydrate residues of glycoproteins on the surface of the cells. [^125I]-human eotaxin (available from Amersham) binds specifically to CCR-3 receptors bringing the [^125I]-human eotaxin in close proximity to the SPA beads. Emitted â-particles from the [^125I]-human eotaxin excite, by its proximity, the fluorophore in the beads and produce light.
Preparation of Assay Buffer: 5.96 g HEPES and 7.0 g sodium chloride are dissolved in distilled water and 1M aqueous CaCl2 (1 mL) and 1M aqueous MgCl2 (5 mL) are added. The pH is adjusted to 7.6 with NaOH and the solution made to a final volume of 1 L using distilled water. 5 g bovine serum albumin and 0.1 g sodium azide are then dissolved in the solution and the resulting buffer stored at 4° C. A Complete™ protease inhibitor cocktail tablet (available from Boehringer) is added per 50 mL of the buffer on the day of use.
Preparation of Homogenisation Buffer: Tris-base (2.42 g) is dissolved in distilled water, the pH of the solution is adjusted to 7.6 with hydrochloric acid and the solution is diluted with distilled water to a final volume of 1 L. The resulting buffer is stored at 4° C. A Complete™ protease inhibitor cocktail tablet is added per 50 mL of the buffer on the day of use.
Preparation of membranes: Confluent rat basophil leukemia (RBL-2H3) cells stably expressing CCR3 are removed from tissue culture flasks using enzyme-free cell dissociation buffer and resuspended in phosphate-buffered saline. […]
The assay is performed in a final volume of 250 μL per well of an Optiplate (ex Canberra Packard). […] The resulting scintillations are counted using a Canberra Packard TopCount, each well being counted for 1 minute. […]

Row | IC50 | SMILES
1 | 16 nM | COc1ccc(C#N)cc1/C=C/C(=O)NC(CO)CN1CCC(Oc2ccc(F)cc2)CC1 (stereo not drawn) [Example 1, (E)-3-(5-Cyano-2-methoxy-phenyl)-N-{2-[4-(4-fluoro-phenoxy)-piperidin-1-yl]-1-hydroxymethyl-ethyl}-acrylamide]
2 | 11 nM | COc1ccc(C#N)cc1/C=C/C(=O)N[C@H](CC(=O)N(C)CCO)CN1CCC(Oc2ccc(F)cc2)CC1 [Example 14, (E)-3-(5-Cyano-2-methoxy-phenyl)-N-((R)-2-[4-(4-fluoro-phenoxy)-piperidin-1-yl]-1-{[(2-hydroxy-ethyl)-methyl-carbamoyl]-methyl}-ethyl)-acrylamide]
3 | 2.8 nM | COc1ccc(C#N)cc1/C=C/C(=O)N[C@H](CNC(C)=O)CN1CCC(Oc2ccc(F)cc2)CC1 [Example 16, (E)-N-{(R)-1-(Acetylamino-methyl)-2-[4-(4-fluoro-phenoxy)-piperidin-1-yl]-ethyl}-3-(5-cyano-2-methoxy-phenyl)-acrylamide]

From patent US7034042B2, “N-(4-aryloxypiperidin-1-ylalkyl) cinnamic amides as CCR33 receptor antagonists” (Novartis AG, priority 2000, dated 2006)
